Assay results from a melting point compilation (Tetko et al.; mined from patent text by program, amines drawn as free bases though some values may be those of a salt).

SMILES | melting point [°C]
COc1cc(CC(=O)O)cc2c1C(=O)c1ccccc1CC2 | 189 to 199
C=CCN1C2CCC3C1CCC2N3C(c1ccc(C(=O)N2CCCCC2)cc1)c1cccc(OC)c1 (stereo not drawn) | 94 to 96
CCOC(=O)C1=C(C)NC(C)=C(C(=O)OCC)C1c1cccc(Br)c1 | 125 to 126
O=C(NCCCl)NC1OC(CO)C(O)C1O (stereo not drawn) | 166 to 168
CC(=O)O[C@H]1C[C@@H](n2ncc(Cl)c(Cl)c2=O)[C@H](O)[C@@H]1O (racemic) | 119 to 122
O=C1COc2cc(C(O)(C(F)(F)F)C(F)(F)F)ccc2N1 | 224 to 225
CN1C(=N)N(C)C(=Cc2c[nH]c3ccccc23)C1=O | 232 to 233
COc1cccn2c(=O)c(CCN3CCc4oc5ccccc5c4C3)c(C)nc12 | 151
Cc1nc2c(O)c(CC[C@@H](O)c3ccccc3)c(C(=O)N3CCC3)cc2n1C | 265 to 266
CC(=O)Nc1ccc(S(=O)(=O)F)cc1 | 169 to 171
COC(=O)c1ccc(C(O)c2cc3cc(C(F)(F)F)ccc3n2S(=O)(=O)c2cccc(C(C)(C)C)c2)cc1 (racemic) | 60
CNC1=Nc2sc(Cl)cc2C(c2ccccc2Cl)=NC1 | 259 to 262
CCCCCCCCC#CCC#CCC#CCCCC(=O)O | 69 to 70
O=C(NCCc1ccccn1)c1ccccc1-c1ccccc1CN1C(=O)c2ccccc2C1=O | 155
Cc1cccc(C)c1OCC(C)NCC(O)c1cc(C(N)=O)cs1 (stereo not drawn) | 125 to 137
O=C(O)C1CCc2c(c3ccccc3n2C(=O)C2CCCCC2)C1 (stereo not drawn) | 157 to 159
CCCn1c(=O)c2c(nc(C=Cc3ccc(C(=O)O)cc3OC)n2C)n(CCC)c1=O | 285 to 286
COc1ccc(-c2c3ccccc3cc3sc4ccccc4c23)cc1 | 220 to 221
Cc1cc(C2=NOC(c3cc(Cl)cc(Cl)c3)(C(F)(F)F)C2)ccc1C(=O)Nc1ccc(Cl)cn1 (stereo not drawn) | 129 to 132
O=C(O)CSc1cc(-c2ccccc2)nc2ccccc12 | 138
O=c1[nH]c(CCCOc2cccc(CN3CCCCC3)c2)ncc1Cc1ccnc(O)c1 | 167 to 169
COc1ccc(C(=O)N2CCc3cc(OCc4ccccc4)c(OC)cc3C2=O)cc1 | 151 to 152
CCCc1c(OCCCCCOc2ccccc2CCCCC(=O)O)ccc2c1OCCC2=O | 75 to 76
Cc1cc(C=CC#N)cc(Oc2[nH]c(=O)[nH]c(=O)c2C(C)C)c1 | 279 to 280

SMILES | melting point [°C]
COC(=O)c1ccc(C)c(-c2cc3cnc(NC4CCOCC4)nc3n(C)c2=O)c1 | 122 to 126
Oc1c(Br)cc(Cl)cc1Cc1cc(F)cc(Cc2cc(Cl)cc(Br)c2O)c1O | 164
CN1C(=O)N(CC(COc2ccc(-c3ccncc3)cc2)N(O)C=O)C(=O)C1(C)C (stereo not drawn) | 217 to 218
Cc1cccc(C2CCN(C(=O)CCC(=O)c3ccc4c(c3)CCNCC4)CC2)c1 | 91 to 93
CCCCc1nc(-n2cccc2)c(C(=O)OCC)[nH]1 | 74 to 77
C[C@H]1[C@@H](O)C(F)(F)C(=O)N1c1ccc(C#N)c(C(F)(F)F)c1 | 128 to 131
Cc1cc(Cl)ccc1OCC(=O)N1Cc2ccc(C(=O)NCc3cccnc3)n2Cc2ccccc21 | 168
COc1ccc(C2=NNS(=O)(=O)Cc3cc4nsnc4cc32)cc1OC | 228 to 230
O=C(O)Cn1c(=O)sc2cc(Br)c(Cl)cc21 | 249 to 252
Cn1cc(-c2cc3cccnc3[nH]2)c2cc(OC3(C(=O)O)CCC3)ccc21 | 168 to 169
N#CCc1ccccc1-c1ccc(C(=O)N2Cc3ccc(C(=O)NCc4cccnc4)n3Cc3ccccc32)cc1 | 105 to 108
N#Cc1c(-c2ccccc2)c(Cl)n2c1CNCC2 | 128 to 130
Cc1nn(-c2ccc(C(F)(F)F)cn2)cc1COc1ccc(CCC(=O)O)cc1 | 195 to 196
Cc1c(CNCC(C)(C)O)[nH]c2c(C)c(NC(=O)c3ccc(OC[C@@H]4CCCO4)cc3F)ccc12 | 151 to 152
CCCCCCNC(=O)C=C(C)C=CC=C(C)C=Cc1c(C)cc(OC)c(C)c1C | 157 to 158
Clc1cccc(Oc2ccc(OCc3cc(C4CC4)no3)cc2)n1 | 128 to 130
Cc1ccc(NCC2CCN(C(C)C3CC3)CC2)c(C(=O)Nc2ccc(Cl)cn2)c1 (stereo not drawn) | 79 to 81
CNC(=O)/C(=N/OC)c1ccccc1COc1cccc(SC)n1 | 130 to 132
O=c1oc(OCc2ccccc2)c(Cl)c2ccccc12 | 92
CCOC(=O)N1CCC2(CC1)Oc1ccccc1C2n1cccc1 (stereo not drawn) | 132 to 133
CCc1cn(C2CCC(CNC(=O)Cc3c(Cl)cccc3Cl)O2)c(=O)[nH]c1=O (stereo not drawn) | 237 to 238
N#Cc1ccccc1-c1ccc(CNc2ccnc3ccnn23)cc1 | 170
CC(=O)c1ccc(-n2c(CCl)nc3ccccc3c2=O)cc1 | 180 to 181
COc1cc(-c2cc(C(F)(F)F)nn2-c2ccc(S(N)(=O)=O)cc2)ccc1-c1cocn1 | 143 to 145
